The subject of data set [1] is BV-2 mouse microglial cells. As to the kind of experiment: NO (nitric oxide) inhibitory activity in LPS-treated microglial cells. It is filed as cell-based. Particulars: LPS 1 μg/ml, 24 hours, read-out: Amount of NO (% of control).
The target in a further data set is CYP2C19 (Homo sapiens, UniProt P33261). The experiment in a line: in vitro. The note with it: human liver microsomes, pH 7.4, probe S-mephenytoin 100 μM (in five-substrate cocktail).
In the next data set the target is CYP2D6 (Homo sapiens, UniProt P10635). The experiment in a line: in vitro. Particulars: human liver microsomes, pH 7.4, probe Dextromethorphan 5 μM (in five-substrate cocktail).
Another data set deals with CYP2C9 (Homo sapiens, UniProt P11712). The experiment in a line: in vitro. Particulars: human liver microsomes, pH 7.4, probe Diclofenac 10 μM (in five-substrate cocktail).
Another data set deals with T1, CYP1A2 (Homo sapiens, UniProt P05177).
T1 sequence (P05177 1-516): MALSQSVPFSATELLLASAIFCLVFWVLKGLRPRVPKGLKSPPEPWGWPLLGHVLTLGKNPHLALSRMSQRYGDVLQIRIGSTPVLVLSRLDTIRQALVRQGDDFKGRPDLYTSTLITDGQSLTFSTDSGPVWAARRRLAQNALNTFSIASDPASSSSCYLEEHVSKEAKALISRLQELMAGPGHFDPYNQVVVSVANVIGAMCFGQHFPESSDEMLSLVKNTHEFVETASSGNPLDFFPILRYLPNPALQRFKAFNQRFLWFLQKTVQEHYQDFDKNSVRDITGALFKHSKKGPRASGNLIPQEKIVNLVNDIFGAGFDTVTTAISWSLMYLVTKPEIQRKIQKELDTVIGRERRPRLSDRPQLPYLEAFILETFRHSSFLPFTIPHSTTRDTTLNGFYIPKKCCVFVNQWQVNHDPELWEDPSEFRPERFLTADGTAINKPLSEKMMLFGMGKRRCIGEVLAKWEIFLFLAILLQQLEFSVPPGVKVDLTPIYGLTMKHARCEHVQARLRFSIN
As to the kind of experiment: in vitro. Particulars: human liver microsomes, pH 7.4, probe Phenacetin 50 μM (in five-substrate cocktail).

The next data set addresses CYP3A4 (Homo sapiens, UniProt P08684). As to the kind of experiment: in vitro. The note with it: human liver microsomes, pH 7.4, probe Midazolam […] (in five-substrate cocktail).
The nature of data set [2]: Metabolic stability using liver microsomes. The class given is in vitro ADME, Human. Particulars: for drug remaining after incubation with microsomes: after 30 minutes; for Human (% remaining): liver microsomes, 30 minutes at 37° C.
In another data set the test system is Nrf2. As to the kind of experiment: Nrf2 functional cell-based assay (DiscoveRx), luminescence. Particulars: U2OS cells; for EC50: 6 hours incubation, read-out: Nrf2 activation EC50.
The conditions of data set [3]: known; cited from earlier work.
The nature of data set [4]: Metabolic stability using liver microsomes. Particulars: 30 minutes. The class given is in vitro ADME, Mouse.
Data set [5] is described as follows: Metabolic stability using liver microsomes. The class given is in vitro ADME, Rat. Particulars: 30 minutes. The method, then: Therefore, in order to predict the extent of drug metabolism by the liver, the main organ for drug metabolism, through in vitro experiments, the metabolic stability of drugs was evaluated using liver microsomes.
Then, an NADPH regeneration system solution was added thereto and the mixed solution was incubated at 37° C. for 30 minutes.

Counter-ions that a name gives are not always drawn.

Sequence of CYP3A4 (P08684 whole entry): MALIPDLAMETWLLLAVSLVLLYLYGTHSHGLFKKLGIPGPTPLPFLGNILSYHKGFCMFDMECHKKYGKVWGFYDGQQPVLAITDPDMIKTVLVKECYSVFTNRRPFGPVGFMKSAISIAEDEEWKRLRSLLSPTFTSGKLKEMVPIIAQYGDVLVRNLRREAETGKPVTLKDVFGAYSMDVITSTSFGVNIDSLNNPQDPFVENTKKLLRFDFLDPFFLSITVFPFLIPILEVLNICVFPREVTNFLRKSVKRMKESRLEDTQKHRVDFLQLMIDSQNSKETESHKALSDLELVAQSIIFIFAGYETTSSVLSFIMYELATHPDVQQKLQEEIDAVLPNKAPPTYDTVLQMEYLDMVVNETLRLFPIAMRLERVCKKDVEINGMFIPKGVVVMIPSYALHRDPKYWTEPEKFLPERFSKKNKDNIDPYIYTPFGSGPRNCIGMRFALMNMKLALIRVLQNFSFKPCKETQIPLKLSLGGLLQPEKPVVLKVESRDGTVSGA
Sequence of CYP2C9 (P11712 whole entry): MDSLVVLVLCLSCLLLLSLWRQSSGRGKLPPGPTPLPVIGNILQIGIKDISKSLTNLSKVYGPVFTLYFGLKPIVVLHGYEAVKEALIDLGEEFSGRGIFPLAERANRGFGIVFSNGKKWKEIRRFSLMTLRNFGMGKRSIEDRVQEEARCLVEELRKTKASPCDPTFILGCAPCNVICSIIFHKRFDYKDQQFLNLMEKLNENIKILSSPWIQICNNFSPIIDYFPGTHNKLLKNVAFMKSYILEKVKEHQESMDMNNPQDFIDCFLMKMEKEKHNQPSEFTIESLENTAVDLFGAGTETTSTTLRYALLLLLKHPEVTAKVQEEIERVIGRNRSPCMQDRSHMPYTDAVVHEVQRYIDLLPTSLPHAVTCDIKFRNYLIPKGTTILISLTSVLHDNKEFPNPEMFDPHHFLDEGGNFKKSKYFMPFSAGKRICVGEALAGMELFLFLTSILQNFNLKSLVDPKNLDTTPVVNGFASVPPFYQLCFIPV
Sequence of CYP2D6 (P10635 whole entry): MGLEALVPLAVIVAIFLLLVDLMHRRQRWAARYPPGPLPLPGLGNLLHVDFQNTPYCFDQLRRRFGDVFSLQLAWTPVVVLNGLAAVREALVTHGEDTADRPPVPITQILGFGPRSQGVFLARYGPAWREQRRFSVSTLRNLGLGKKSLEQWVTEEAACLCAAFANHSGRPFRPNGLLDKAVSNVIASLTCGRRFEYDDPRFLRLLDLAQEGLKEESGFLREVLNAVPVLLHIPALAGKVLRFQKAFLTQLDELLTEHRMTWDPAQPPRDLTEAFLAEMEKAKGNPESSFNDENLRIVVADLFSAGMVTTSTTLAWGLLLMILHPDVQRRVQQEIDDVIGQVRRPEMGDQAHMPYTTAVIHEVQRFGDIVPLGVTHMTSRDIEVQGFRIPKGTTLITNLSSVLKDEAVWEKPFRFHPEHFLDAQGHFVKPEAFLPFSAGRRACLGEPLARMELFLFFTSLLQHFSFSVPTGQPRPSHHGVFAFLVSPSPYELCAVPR
Sequence of CYP2C19 (P33261 whole entry): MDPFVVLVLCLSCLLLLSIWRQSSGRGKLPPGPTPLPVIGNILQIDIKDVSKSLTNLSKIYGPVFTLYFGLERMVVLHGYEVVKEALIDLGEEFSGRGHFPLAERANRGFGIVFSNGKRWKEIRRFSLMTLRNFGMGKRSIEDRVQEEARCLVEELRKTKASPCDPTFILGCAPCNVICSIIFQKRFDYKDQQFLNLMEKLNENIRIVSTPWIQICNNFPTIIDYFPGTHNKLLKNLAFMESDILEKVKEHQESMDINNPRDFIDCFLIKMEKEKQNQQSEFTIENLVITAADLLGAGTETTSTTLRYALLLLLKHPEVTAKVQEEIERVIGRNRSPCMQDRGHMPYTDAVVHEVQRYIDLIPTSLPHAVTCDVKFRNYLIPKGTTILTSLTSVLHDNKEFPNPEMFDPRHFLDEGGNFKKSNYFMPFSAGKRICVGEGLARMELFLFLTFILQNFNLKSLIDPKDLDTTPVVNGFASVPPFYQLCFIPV

Take `N=S(=O)(/C=C/c1ccccn1)c1ccccc1F` (stereo not drawn) [Compound 1-1, (E)-(2-Fluorophenyl)(imino)(2-(pyridin-2-yl)vinyl)-λ^6-sulfanone]: the activity at 0.1 µM in data set [1] came to 97%. In addition, in data set [1], the activity at 1 µM is 74.2%. Moreover, the activity at 10 µM in data set [1] is less than 3%. Further, the activity at 15 min, 10 µM stood at 66.9% at CYP2C19; 82.7% on CYP2D6; 85.7% on CYP2C9; 87.8% at CYP1A2; 121% on CYP3A4.
In the case of `COc1ccc(S(=N)(=O)/C=C/c2ccccn2)cc1` (stereo not drawn) [Compound 1-2, (E)-Imino(4-methoxyphenyl)(2-(pyridin-2-yl)vinyl)-λ^6-sulfanone], the “drug remaining after incubation with microsomes” value in [2] is listed as “remained at a high concentration”. Besides, in [1], the activity at 0.1 µM is 110%. Also, the activity at 1 µM in data set [1] amounted to 115%. The activity at 10 µM in data set [1] amounted to 35.8%. Also, the activity at 15 min, 10 µM at CYP2C19 came out at 70.4%; on CYP2D6, 98.6%; at CYP2C9, 96.6%; at CYP1A2 it was 88.9%; at CYP3A4 it was 97.5%.
With `N=S(=O)(/C=C/c1ncccc1Cl)c1ccccc1Cl` (stereo not drawn) [Compound 1-4, (E)-(2-chlorophenyl)(2-(3-chloropyridin-2-yl)vinyl)(imino)-λ^6-sulfanone], the “drug remaining after incubation with microsomes” value in data set [2] was “remained at a high concentration”.
With `N=S(=O)(/C=C/c1ncccc1F)c1ccccc1F` (stereo not drawn) [Compound 1-5, (E)-(2-fluorophenyl)(2-(3-fluoropyridin-2-yl)vinyl)(imino)-λ^6-sulfanone], in [1], the activity at 0.1 µM was found to be 101%, the activity at 1 µM turned out to be 69.2% and the activity at 10 µM is 7.96%.
With `COc1ccccc1S(=N)(=O)/C=C/c1ncccc1Cl` (stereo not drawn) [Compound 1-8, (E)-(2-(3-chloropyridin-2-yl)vinyl)(imino)(2-methoxyphenyl)-λ^6-sulfanone], the activity at 10 µM in data set [1] is 14.2%. The activity at 15 min, 10 µM on CYP2C19 is 24.4%; at CYP2D6 it was 93.9%; on CYP2C9 it was 192%; at CYP1A2 it was 84.4%; on CYP3A4, 78.4%.
`COc1ccc(S(=N)(=O)/C=C/c2ncccc2Cl)cc1` (stereo not drawn) [Compound 1-10, (E)-(2-(3-chloropyridin-2-yl)vinyl)(imino)(4-methoxyphenyl)-λ^6-sulfanone]: in [1], the activity at 10 µM was less than 3%. Besides, the activity at 15 min, 10 µM on CYP2C19 was found to be 6%; on CYP2D6, 112%; on CYP2C9 it was 133%; on CYP1A2, 103%; on CYP3A4, 109%.
In the case of `N=S(=O)(/C=C/c1cccnc1)c1ccccc1Cl` (stereo not drawn) [Compound 1-12, (E)-(2-chlorophenyl)(imino)(2-(pyridin-3-yl)vinyl)-λ^6-sulfanone], the EC50 in the data set on Nrf2 was greater than 10 µM. The activity at 15 min, 10 µM at CYP2C19 was determined as 68.2%; at CYP2D6, 94.4%; at CYP2C9, 87.1%; on CYP1A2, 86.8%; on CYP3A4, 104%.
For the compound `N=S(=O)(/C=C/c1cccnc1Cl)c1ccccc1Cl` (stereo not drawn) [Compound 1-13, (E)-(2-chlorophenyl)(2-(2-chloropyridin-3-yl)vinyl)(imino)-λ^6-sulfanone], the activity at 10 µM in data set [1] came to 9.26%. Also, the activity at 15 min, 10 µM on CYP2C19 was 27.8%; on CYP2D6, 95.7%; at CYP2C9 it was 169%; at CYP1A2, 93.3%; at CYP3A4 it was 59.8%.
As to `N=S(=O)(/C=C/c1cccc(Cl)c1)c1ccccn1` (stereo not drawn) [Compound 1-16, (E)-(3-chlorostyryl)(imino)(pyridin-2-yl)-λ^6-sulfanone], the activity at 10 µM in data set [1] is less than 3%.
Regarding `N=S(=O)(/C=C/c1ccccc1C(F)(F)F)c1ccccn1` (stereo not drawn) [Compound 1-17, (E)-imino(pyridin-2-yl)(2-(trifluoromethyl)styryl)-λ^6-sulfanone], in data set [1], the activity at 10 µM is less than 3%.
The same measure, in the same setting: the same measure for `N=S(=O)(/C=C/c1ccccc1OC(F)(F)F)c1ccccn1` (stereo not drawn) [Compound 1-18, (E)-imino(pyridin-2-yl)(2-(trifluoromethoxy)styryl)-λ^6-sulfanone]: less than 3%; for `N=S(=O)(/C=C/c1ccc(Cl)cc1)c1ccccn1` (stereo not drawn) [Compound 1-20, (E)-(4-chlorostyryl)(imino)(pyridin-2-yl)-λ^6-sulfanone]: 20.3%.
As for `C[Si](C)(C)N=S(=O)(/C=C/c1ccccc1Cl)c1ccncc1F` (stereo not drawn) [Compound 1-46, (E)-(2-chlorostyryl)(3-fluoropyridin-4-yl)((trimethylsilyl)imino)-λ^6-sulfanone], the “Nrf2 activation effect compared with Sulforaphane” value in the data set with Nrf2 was “better Nrf2 activation effect than Sulforaphane”.
Turning to `N=S(=O)(/C=C/c1ncccc1F)c1ccc(OCCCN2CCOCC2)cn1` (stereo not drawn) [Compound 1-53, (E)-(2-(3-fluoropyridin-2-yl)vinyl)(imino)(5-(3-morpholinopropoxy)pyridin-2-yl)-λ^6-sulfanone], the concentration for a half-maximal effect (EC50) in the data set with Nrf2 came out at 0.604 µM.
For `COc1ccccc1S(=O)(/C=C/c1ccccc1Cl)=NC#N` (stereo not drawn) [Compound 1-57, (E)-N-((2-chlorostyryl)(2-methoxyphenyl)(oxo)-λ^6-sulfanylidene)cyanamide], in the data set on Nrf2, the “Nrf2 activation effect compared with Sulforaphane” value is “better Nrf2 activation effect than Sulforaphane”.
For the compound `COc1ccccc1S(=O)(/C=C/c1ncccc1Cl)=NC#N` (stereo not drawn) [Compound 1-58, (E)-N-((2-(3-chloropyridin-2-yl)vinyl)(2-methoxyphenyl)(oxo)-λ^6-sulfaneylidene)cyanamide], the EC50 with Nrf2 was 0.658 µM.
As for `COC(=O)/C=C/C(=O)OC` [DMF, Dimethyl fumarate, reference compound], in [1], the activity at 0.1 µM was found to be 113%, the activity at 1 µM was found to be 60% and the activity at 10 µM is 16.3%.
Regarding `C[S+]([O-])CCCCN=C=S` (stereo not drawn) [Sulforaphane, 1-isothiocyanato-4-methylsulfinylbutane], in [3], the “concentration at which high toxicity is exhibited” value was no less than 5 M.
With `O=S(=O)(/C=C/c1ncccc1Cl)c1ccccc1F` [drawing 157, reference compound], the activity at 15 min, 10 µM on CYP2C19 amounted to 16.6%; at CYP2D6, 86.1%; at CYP2C9 it was 45.5%; at CYP1A2, 95.8%; at CYP3A4, 105%.
Take `O=S(=O)(/C=C/c1ncccc1Cl)c1ccccc1F` [drawing 173]: the “Human (% remaining)” value in data set [2] worked out at 72 % remaining. Moreover, in data set [4], the “Mouse (% remaining)” value was 19 % remaining. Also, in data set [5], the “Rat (% remaining)” value came to 23 % remaining.
As for `O=S(=O)(/C=C/c1ccccn1)c1ccccc1F` [reference compound], the activity at 15 min, 10 µM at CYP2C19 stood at 38.4%; at CYP2D6, 92.4%; at CYP2C9, 230%; on CYP1A2, 93%; on CYP3A4, 104%.
`COc1ccccc1S(=O)(=O)/C=C/c1ncccc1Cl` [reference compound]: on CYP2C9, the activity at 15 min, 10 µM turned out to be 209%.
Still for that read-out and setting: the same measure for `COc1ccc(S(=O)(=O)/C=C/c2ncccc2Cl)cc1` [reference compound]: 196%.
For `O=S(=O)(/C=C/c1cccnc1)c1ccccc1Cl` [reference compound], the activity at 15 min, 10 µM at CYP2C19 is 33.4%; on CYP2D6, 101%; at CYP2C9 it was 118%; on CYP1A2, 84%; at CYP3A4 it was 74.2%.
For `O=S(=O)(/C=C/c1cccnc1Cl)c1ccccc1Cl` [reference compound] the same measures were 28.3%, 93.8%, 88.7%, 85.6% and 81.2%.
With `O=S(=O)(/C=C/c1ncccc1Cl)c1ccccc1Cl` [reference compound], the “Human (% remaining)” value in data set [2] is on record as 66 % remaining. Besides, in [4], the “Mouse (% remaining)” value came to 4.5 % remaining.

(Values after patent publication US20260248772A1, “NOVEL SULFANONE DERIVATIVE OR PHARMACEUTICALLY ACCEPTABLE SALT THEREOF, AND USE THEREOF” (KOREA INSTITUTE OF SCIENCE AND TECHNOLOGY, priority 2022, published 2026).)
